According to BindingDB's records for doi:10.1016/j.bmcl.2003.11.081 (Cubist Pharmaceuticals, 2004):

Tests used:
[1] = target: Phenylalanine--tRNA ligase (Enterococcus faecalis); assay: Inhibitory activity against phenylalanyl-tRNA synthetase from Enterococcus faecalis
[2] = target: Phenylalanine--tRNA ligase (Staphylococcus aureus); assay: Inhibitory activity against phenylalanyl-tRNA synthetase from Staphylococcus aureus
[3] = target: T1, Phenylalanine--tRNA ligase, mitochondrial (Homo sapiens, UniProt O95363); assay: ChEBML_154873
T1 sequence (O95363 whole entry): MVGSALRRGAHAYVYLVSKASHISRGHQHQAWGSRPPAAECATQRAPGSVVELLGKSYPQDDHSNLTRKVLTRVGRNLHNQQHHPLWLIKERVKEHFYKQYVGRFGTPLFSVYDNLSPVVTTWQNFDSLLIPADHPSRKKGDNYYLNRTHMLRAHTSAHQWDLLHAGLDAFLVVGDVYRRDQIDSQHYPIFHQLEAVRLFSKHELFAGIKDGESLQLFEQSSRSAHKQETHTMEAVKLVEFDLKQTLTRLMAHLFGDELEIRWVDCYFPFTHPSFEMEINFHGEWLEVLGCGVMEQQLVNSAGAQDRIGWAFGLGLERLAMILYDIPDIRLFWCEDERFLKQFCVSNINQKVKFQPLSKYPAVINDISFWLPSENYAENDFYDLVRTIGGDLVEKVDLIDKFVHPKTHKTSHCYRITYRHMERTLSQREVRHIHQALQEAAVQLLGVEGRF
Protocol: (§1) Inhibitory activity against human phenylalanyl-tRNA synthetase was determined

[4] = target: Phenylalanine--tRNA ligase (Enterococcus faecalis); assay: Inhibitory activity against phenylalanyl-tRNA synthetase from Enterococcus faecalis; remark: listed apart in the source
[5] = target: T1, Phenylalanine--tRNA ligase, mitochondrial; assay: as §1

Row | Structure (SMILES) | IC50 [1] [µM] | IC50 [2] [µM] | IC50 [3] [µM] | IC50 [4] [µM] | IC50 [5] [µM]
1 | O=C1c2ccccc2C(=O)C12OC(c1ccccc1)c1c2c(O)n(-c2ccc([N+](=O)[O-])cc2)c1O [5-(4-nitrophenyl)-3-phenyl-(3R,3aS,6aR)-spiro[perhydrofuro[3,4-c]pyrrole-1,2'-(2',3'-dihydro-1'H-indene)]-1',3',4,6-tetraone] | > 100 | > 100 | > 100 |  | 
2 | O=C1c2ccccc2C(=O)C12OC(c1ccccc1)c1c2c(O)n(-c2ccc(Cl)c(C(F)(F)F)c2)c1O [5-(4-chloro-3-trifluoromethylphenyl)-3-phenyl-(3R,3aS,6aR)-spiro[perhydrofuro[3,4-c]pyrrole-1,2'-(2',3'-dihydro-1'H-indene)]-1',3',4,6-tetraone] | 32 | 45 |  |  | 
3 | COC(=O)C1NC(c2ccccc2)c2c1c(O)n(-c1ccc(Cl)c(Cl)c1)c2O [methyl 5-(3,4-dichlorophenyl)-4,6-dioxo-3-phenyl-(3R,3aS,6aR)-perhydropyrrolo[3,4-c]pyrrole-1-carboxylate] | > 100 |  | > 100 | > 100 | 
4 | Cc1ccc(C2OC3(C(=O)c4ccccc4C3=O)c3c2c(O)n(-c2ccc4c(c2)OCO4)c3O)cc1 [5-benzo[d][1,3]dioxol-5-yl-3-(4-methylphenyl)-(3R,3aS,6aR)-spiro[perhydrofuro[3,4-c]pyrrole-1,2'-(2',3'-dihydro-1'H-indene)]-1',3',4,6-tetraone] | > 100 |  | > 100 | > 100 | 
5 | Oc1c2c(c(O)n1-c1ccc(Cl)c(Cl)c1)C1(Cc3ccccc3C1)NC2c1ccccc1 (stereo unspecified) | > 100 | > 100 | > 100 | > 100 | > 100
